Data as given in ChEMBL document CHEMBL4680105, “Discovery of Benzenesulfonamide Derivatives as Carbonic Anhydrase Inhibitors with Effective Anticonvulsant Action: Design, Synthesis, and Pharmacological Evaluation” (J Med Chem, 2018).
pKi: −log10 of the molar value. One block for each compound: values may come before it.

How the values were obtained:
Mus musculus [1] = assay: Anticonvulsant activity in Swiss Albino mouse assessed as protection against seizure at 100 mg/kg, ip measured after 3 hrs by sc-PTZ seizure test relative to control; type: functional
Mus musculus [2] = assay: (§1) Anticonvulsant activity in Swiss Albino mouse model of maximal electroshock-induced seizure assessed as protection against seizure by measuring suppression of hind limb extension at 30 mg/kg, po pretreated for 30 mins before seizure stimulation and measured after 4 hrs by MES test relative to control; type: functional; conditions: time 4.5 hrs
[3] = Hepatotoxicity in Wistar rat assessed as total bilirubin level at 100 mg/kg, po for 14 days (reference value: 0.32 +/- 0.09 mg/dL) by liver function test; type: toxicity, organism-based; conditions: in vivo, 336 h, time 14 day
Mus musculus [4] = assay: as §1, with “ip” for “po”, “3” for “4”; type: functional; conditions: time 3.5 hrs
Mus musculus [5] = assay: Anticonvulsant activity in Swiss Albino mouse assessed as protection against seizure at 30 mg/kg, ip measured after 0.5 hrs by sc-PTZ seizure test relative to control; type: functional
[6] = Hematological toxicity in Wistar rat assessed as platelet count level at 100 mg/kg, po for 14 days (reference value: 698 +/- 156 10^3/mm3); type: organism-based; conditions: in vivo, 336 h, time 14 day
[7] = Neurotoxicity in Swiss Albino mouse by rotarod test at 30 mg/kg. ip measured up to 120 mins by rotarod test; type: toxicity, organism-based; conditions: in vivo, 2 h
[8] = Hematological toxicity in Wistar rat assessed as lymphocytes level at 100 mg/kg, po for 14 days (reference value: 74.6 +/- 4.3%); type: organism-based; conditions: in vivo, 336 h, time 14 day
[9] = Hepatotoxicity in Wistar rat assessed as alkaline phosphatase level at 100 mg/kg, po for 14 days (reference value: 114.2 +/- 8.4 U/L) by liver function test; type: toxicity, organism-based; conditions: in vivo, 336 h, time 14 day
[10] = Sub-acute toxicity in Wistar rat at 100 mg/kg, po for 14 days; type: organism-based; conditions: in vivo, 336 h, time 14 day
Mus musculus [11] = assay: as §1, with “ip” for “po”, “0.5” for “4”; type: functional; conditions: time 60 min, 1 h
Mus musculus [12] = assay: as §1, with “ip” for “po”; type: functional; conditions: time 4.5 hrs
Mus musculus [13] = assay: Anticonvulsant activity in Swiss Albino mouse assessed as protection against seizure at 100 mg/kg, ip measured after 0.5 hrs by sc-PTZ seizure test relative to control; type: functional
[14] = Hepatotoxicity in Wistar rat assessed as SGPT level at 100 mg/kg, po for 14 days (reference value: 59.2 +/- 12.5 U/L) by liver function test; type: toxicity, organism-based; conditions: in vivo, 336 h, time 14 day
Mus musculus [15] = assay: as §1, with “at 100” for “at 30”, “mg/kg, ip” for “mg/kg, po”, “after 0.5” for “after 4”; type: functional; conditions: time 60 min, 1 h
[16] = Hepatotoxicity in Wistar rat assessed as total protein level at 100 mg/kg, po for 14 days (reference value: 6.35 +/- 0.46 g/dL) by liver function test; type: toxicity, organism-based; conditions: in vivo, 336 h, time 14 day
[17] = Renal toxicity in Wistar rat assessed as calcium level at 100 mg/kg, po for 14 days (reference value: 10.3 +/- 1.8 mg/dL) by kidney function test; type: organism-based; conditions: in vivo, 336 h, time 14 day
[18] = Sub-acute toxicity in Wistar rat assessed as mortality level at 100 mg/kg, po for 14 days; type: organism-based; conditions: in vivo, 336 h, time 14 day
[19] = Hematological toxicity in Wistar rat assessed as eosinophils level at 100 mg/kg, po for 14 days (reference value: 2.3 +/- 1.2%); type: organism-based; conditions: in vivo, 336 h, time 14 day
[20] = Renal toxicity in Wistar rat assessed as uric acid level at 100 mg/kg, po for 14 days (reference value: 4.33 +/- 2.5 mg/dL) by kidney function test; type: organism-based; conditions: in vivo, 336 h, time 14 day
Carbonic anhydrase 9 = Carbonic anhydrase 9 (Homo sapiens, UniProt Q16790); assay: Inhibition of recombinant human carbonic anhydrase 9 by stopped-flow CO2 hydration assay
[21] = Hematological toxicity in Wistar rat assessed as monocytes level at 100 mg/kg, po for 14 days (reference value: 2.5 +/- 1.5%); type: organism-based; conditions: in vivo, 336 h, time 14 day
Mus musculus [22] = assay: as §1, with “0.5” for “4”; type: functional; conditions: time 60 min, 1 h
Mus musculus [23] = assay: as §1, with “ip” for “po”, “1” for “4”; type: functional; conditions: time 1.5 hrs
Mus musculus [24] = assay: as §1, with “ip” for “po”, “2” for “4”; type: functional; conditions: time 2.5 hrs
Mus musculus [25] = assay: as §1, with “0.25” for “4”; type: functional; conditions: 0.5 h
[26] = Hematological toxicity in Wistar rat assessed as neutrophils level at 100 mg/kg, po for 14 days (reference value: 20.8 +/- 5.8%); type: organism-based; conditions: in vivo, 336 h, time 14 day
[27] = Renal toxicity in Wistar rat assessed as blood urea level at 100 mg/kg, po for 14 days (Rvb =34.7 +/- 9.9 mg/dL) by kidney function test; type: organism-based; conditions: in vivo, 336 h, time 14 day
[28] = Hematological toxicity in Wistar rat assessed as TLC level at 100 mg/kg, po for 14 days (reference value: 6.3 +/- 1.4 10^3/ml); type: organism-based; conditions: in vivo, 336 h, time 14 day
Mus musculus [29] = assay: Anticonvulsant activity in Swiss Albino mouse assessed as protection against seizure at 30 mg/kg, ip measured after 3 hrs by sc-PTZ seizure test relative to control; type: functional
[30] = Hematological toxicity in Wistar rat assessed as Hb level at 100 mg/kg, po for 14 days (reference value: 12.7 +/- 1.5 g/dL); type: organism-based; conditions: in vivo, 336 h, time 14 day
[31] = Hematological toxicity in Wistar rat assessed as RBC level at 100 mg/kg, po for 14 days (reference value: 7.9 +/- 0.94 10^6/mm3); type: organism-based; conditions: in vivo, 336 h, time 14 day
[32] = Hepatotoxicity in Wistar rat assessed as SGOT level at 100 mg/kg, po for 14 days (reference value: 59.9 +/- 11 U/L) by liver function test; type: toxicity, organism-based; conditions: in vivo, 336 h, time 14 day
Mus musculus [33] = assay: as §1, with “at 100” for “at 30”, “mg/kg, ip” for “mg/kg, po”, “after 3” for “after 4”; type: functional; conditions: 0.5 h
Mus musculus [34] = assay: as §1, with “1” for “4”; type: functional; conditions: time 1.5 hrs
[35] = Renal toxicity in Wistar rat assessed as K+ level at 100 mg/kg, po for 14 days (reference value: 4.82 +/- 0.3 mequiv/L) by kidney function test; type: organism-based; conditions: in vivo, 336 h, time 14 day
[36] = Renal toxicity in Wistar rat assessed as Cl- level at 100 mg/kg, po for 14 days (reference value: 105.5 +/- 6.5 mequiv/L) by kidney function test; type: organism-based; conditions: in vivo, 336 h, time 14 day
Mus musculus [37] = assay: as §1, with “ip” for “po”, “6” for “4”; type: functional; conditions: time 6.5 hrs
[38] = Hematological toxicity in Wistar rat assessed as basophils level at 100 mg/kg, po for 14 days (reference value: 0.3 +/- 0.5%); type: organism-based; conditions: in vivo, 336 h, time 14 day
[39] = Renal toxicity in Wistar rat assessed as creatinine level at 100 mg/kg, po for 14 days (reference value: 0.75 +/- 0.1 mg/dL) by kidney function test; type: organism-based; conditions: in vivo, 336 h, time 14 day
Mus musculus [40] = assay: as §1, with “2” for “4”; type: functional; conditions: time 2.5 hrs
[41] = Renal toxicity in Wistar rat assessed as phosphorus level at 100 mg/kg, po for 14 days (reference value: 9.4 +/- 2.0 mg/dL) by kidney function test; type: organism-based; conditions: in vivo, 336 h, time 14 day
[42] = Renal toxicity in Wistar rat assessed as Na+ level at 100 mg/kg, po for 14 days (reference value: 144 +/- 2.8 mequiv/L) by kidney function test; type: organism-based; conditions: in vivo, 336 h, time 14 day

Compound: NS(=O)(=O)c1ccc(CNC(=O)CCN2CCN(Cc3ccc4c(c3)OCO4)CC2)cc1
Activity (Mus musculus [1]): 50%
Activity (Mus musculus [2]): 50%
Activity [3]: 0.38 mg/dL
Activity (Mus musculus [4]): 67%
Activity (Mus musculus [5]): 83%
Activity [6]: 662.3 10^3/mm3
Activity [7]: Non-Toxic
Activity [8]: 74%
Activity [9]: 113.4 U/L
Activity [10]: Non-Toxic
Activity (Mus musculus [11]): 67%
Activity (Mus musculus [12]): 70%
Activity (Mus musculus [13]): 50%
Activity [14]: 52.9 U/L
Activity (Mus musculus [15]): 83%
Activity [16]: 6.2 g/dL
Activity [17]: 9.9 mg/dL
Activity [18]: Non-Toxic
Activity [19]: 2.3%
Activity [20]: 2.73 mg/dL
pKi (Carbonic anhydrase 9): 6.98
Activity [21]: 2.3%
Activity (Mus musculus [22]): 50%
Activity (Mus musculus [23]): 80%
Activity (Mus musculus [24]): 60%
Activity (Mus musculus [25]): 17%
Activity [26]: 22.3%
Activity [27]: 39.8 mg/dL
Activity [28]: 7.5 10^3/ml
Activity (Mus musculus [29]): 67%
Activity [30]: 12.6 g/dL
Activity [31]: 7.7 10^6/mm3
Activity [32]: 64.2 U/L
Activity (Mus musculus [33]): 67%
Activity (Mus musculus [34]): 67%
Activity [35]: 4.9 mEq/L
Activity [36]: 104.3 mEq/L
Activity (Mus musculus [37]): 50%
Activity [38]: 0.16%
Activity [39]: 0.75 mg/dL
Activity (Mus musculus [40]): 67%
Activity [41]: 6.8 mg/dL
Activity [42]: 144 mEq/L

Compound: NS(=O)(=O)c1ccc(CNC(=O)CCN2CCN(c3ccc(C(F)(F)F)cc3)CC2)cc1
pKi (Carbonic anhydrase 9): 6.86

Compound: NS(=O)(=O)c1ccc(CNC(=O)CN2CCN(C(=O)OCc3ccccc3)CC2)cc1
Activity (Mus musculus [1]): 33%
Activity (Mus musculus [4]): 67%
Activity (Mus musculus [5]): 67%
Activity (Mus musculus [11]): 17%
Activity (Mus musculus [13]): 50%
Activity (Mus musculus [15]): 67%
pKi (Carbonic anhydrase 9): 5.79
Activity (Mus musculus [29]): 17%
Activity (Mus musculus [33]): 50%

Compound: NS(=O)(=O)c1ccc(CNC(=O)CN2CCN(Cc3ccccc3)CC2)cc1
pKi (Carbonic anhydrase 9): 6.66

Compound: NS(=O)(=O)c1ccc(CNC(=O)CN2CCN(c3ccc(C(F)(F)F)cc3)CC2)cc1
pKi (Carbonic anhydrase 9): 5.75

Other lines, results leading:

pKi (Carbonic anhydrase 9): 7.10
Compound: Cc1ccc(N2CCN(CCC(=O)NCc3ccc(S(N)(=O)=O)cc3)CC2)cc1

pKi (Carbonic anhydrase 9): 6.94
Compound: NS(=O)(=O)c1ccc(CNC(=O)CCN2CCN(c3ccc(F)cc3)CC2)cc1
